Literature values as cited in patent US20240216401A1, “COMBINATION THERAPY BY USING AKR1C3-ACTIVATED COMPOUND WITH IMMUNE CHECKPOINT INHIBITOR” (OBI Pharma, Inc., priority 2021, published 2024).

Tested on: tumor
Conditions: in vitro and in vivo; references 6, 21; cited from earlier work

CS(=O)(=O)OCCN(CCBr)c1c(C(=O)NCCOP(=O)(O)O)cc([N+](=O)[O-])cc1[N+](=O)[O-] [PR104]
anti-tumor activity (in words): good anti-tumor activity
